Several values for one entry are separate records, joined by “and”; a condition that tells them apart may be missing. Equal values may be shown once.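 Values below derive from 48-hour exposures of cells grown in 96-well plates, with endpoints linearly interpolated between the two concentrations bracketing the appropriate inhibition level. At the GI50, growth is halved. TGI denotes the concentration required for complete inhibition of growth.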 Some results are limits rather than exact numbers.

The text below walks through data of PubChem BioAssay (NCI).

Some test systems named below: HCC-2998 colon; HCT-116 colon; HL-60(TB) leukemia; OVCAR-8 ovarian; SK-MEL-2 melanoma; SK-MEL-5 melanoma; SN12C renal; SNB-19 CNS; SNB-75 CNS; SR leukemia.
Assay in all cases: NCI anticancer screen, dose series, 48 h

For the compound `CC1=C(c2cccc(O)c2)[C@H](c2ccc(OCCN3CC(CF)C3)cc2)Oc2ccc(O)cc21`, the GI50 in the test with HCC-2998 colon was 3840 nM; in the test on HCT-116 colon it was 4.46 µM; with HL-60(TB) leukemia, 4390 nM; in the test with OVCAR-8 ovarian, 12900 nM; with SK-MEL-2 melanoma, 7200 nM; with SK-MEL-5 melanoma it was 3580 nM. Also, the GI50 in the test with SN12C renal is 7420 nM; with SNB-19 CNS, 10100 nM; in the test with SNB-75 CNS it was 10500 nM; with SR leukemia, 3760 nM. Also, the TGI with HCC-2998 colon is 15.4 µM; in the test on HCT-116 colon it was 17.5 µM; with HL-60(TB) leukemia, 22.2 µM; in the test with OVCAR-8 ovarian, 32.6 µM; with SK-MEL-2 melanoma, 20.9 µM; in the test on SK-MEL-5 melanoma, 12.8 µM. The TGI in the test with SN12C renal was determined as 21.3 µM; with SNB-19 CNS, 22.1 µM; in the test with SNB-75 CNS, 22.3 µM; with SR leukemia, 36.2 µM.
As to `CCOC(=O)CCC(NC(=O)OCc1ccccc1)C(=O)NC(CCC(=O)OCC)C(=O)NC(CCC(=O)OCC)C(=O)NC(CCC(=O)OCC)C(=O)NC(CCC(=O)OCC)C(=O)NC(CCC(=O)OCC)C(=O)NC(CCC(=O)OCC)C(=O)OCC` (configuration not stated), the TGI with HCC-2998 colon is 53.8 µM; in the test on HCT-116 colon it was > 100 µM; with HL-60(TB) leukemia it was > 100 µM; with OVCAR-8 ovarian, > 100 µM; with SK-MEL-2 melanoma it was > 100 µM; with SK-MEL-5 melanoma it was > 100 µM. Further, the TGI in the test on SN12C renal, with SNB-19 CNS, in the test on SNB-75 CNS and with SR leukemia was > 100 µM throughout.
As for `N#C/C(=C\c1ccsc1)c1nc2ccccc2o1`, the GI50 is > 100000 nM in the test with HCC-2998 colon; 35.7 µM with HCT-116 colon; > 100000 nM with HL-60(TB) leukemia; > 100000 nM with OVCAR-8 ovarian; 98500 nM with SK-MEL-2 melanoma; 58800 nM in the test on SK-MEL-5 melanoma. Besides, the GI50 in the test on SN12C renal was > 100000 nM; with SNB-19 CNS it was > 100000 nM; with SNB-75 CNS it was 24500 nM; in the test with SR leukemia, > 100000 nM. Further, the TGI with HCC-2998 colon, with HCT-116 colon, in the test with HL-60(TB) leukemia, with OVCAR-8 ovarian, in the test on SK-MEL-2 melanoma and in the test on SK-MEL-5 melanoma was > 100 µM each time. Further, the TGI was > 100 µM in the test with SN12C renal, > 100 µM with SNB-19 CNS, 65.5 µM in the test on SNB-75 CNS and > 100 µM with SR leukemia.
Turning to `C#CC#CC#CC#CC#CC#CC#CC#CCC1OCC(COC(=O)O[C@@H](C(=O)O[C@H]2C[C@@]3(O)[C@@H](OC(=O)c4ccccc4)[C@@H]4[C@]5(OC(C)=O)CO[C@@H]5C[C@H](O)[C@@]4(C)C(=O)[C@H](OC(C)=O)C(=C2C)C3(C)C)[C@@H](NC(=O)c2ccccc2)c2ccccc2)O1` (some centres not stated), the GI50 with HCC-2998 colon is 287 nM; with HCT-116 colon it was 0.0533 µM; in the test with HL-60(TB) leukemia, 99 nM; in the test with OVCAR-8 ovarian it was 187 nM; in the test on SK-MEL-2 melanoma, 603 nM; in the test on SK-MEL-5 melanoma, 671 nM. Besides, the GI50 in the test on SN12C renal is 510 nM; in the test on SNB-19 CNS it was 612 nM; with SNB-75 CNS, 24.4 nM; in the test on SR leukemia, 99.1 nM. Besides, the TGI in the test on HCC-2998 colon is > 33.3 µM; in the test with HCT-116 colon, > 33.3 µM; with OVCAR-8 ovarian it was > 33.3 µM; in the test on SK-MEL-2 melanoma, > 33.3 µM; in the test with SK-MEL-5 melanoma, > 9.85 µM; in the test on SN12C renal it was > 33.3 µM. Further, the TGI with SNB-19 CNS was > 33.3 µM; in the test on SNB-75 CNS it was 0.189 µM; in the test with SR leukemia, > 33.3 µM.
With `COc1ccc2c(c1)NC1=C(C(=O)OC1)C2c1cc(OC)c2c(c1)OCO2` (configuration not stated), the GI50 in the test with HCC-2998 colon was 29.7 nM; with HCT-116 colon, < 0.0182 µM; in the test with HL-60(TB) leukemia it was 20.9 nM; with OVCAR-8 ovarian, < 18.5 nM; in the test on SK-MEL-2 melanoma it was 29.9 nM; in the test on SK-MEL-5 melanoma, 21 nM. Also, the GI50 is 28.8 nM in the test on SN12C renal, 51.9 nM in the test with SNB-19 CNS, 42.6 nM in the test on SNB-75 CNS and < 19.1 nM in the test on SR leukemia. The TGI in the test on HL-60(TB) leukemia was > 100 µM; in the test on OVCAR-8 ovarian it was > 100 µM; in the test on SK-MEL-2 melanoma, > 100 µM; in the test on SK-MEL-5 melanoma it was 0.0523 µM; with SN12C renal, > 100 µM; in the test on SNB-19 CNS it was > 100 µM. Besides, the figures for the TGI with SNB-75 CNS and in the test with SR leukemia were 43.3 µM and > 100 µM, respectively.
Regarding `C[C@@]12CCC(=O)c3coc(c31)C(=O)c1cc3c(cc12)C(=O)C=CC3=O`, the GI50 is > 1000 nM in the test with HCC-2998 colon; > 1 µM with HCT-116 colon; > 1000 nM in the test with HL-60(TB) leukemia; > 1000 nM with OVCAR-8 ovarian; > 1000 nM in the test on SK-MEL-2 melanoma; > 1000 nM in the test on SK-MEL-5 melanoma. Further, the GI50 in the test on SN12C renal, with SNB-19 CNS, with SNB-75 CNS and in the test with SR leukemia was > 1000 nM throughout. Moreover, the TGI is > 100 µM in the test on HCC-2998 colon; > 1 µM and 28.7 µM with HCT-116 colon; > 1 µM and 5.5 µM in the test with HL-60(TB) leukemia; > 1 µM and 30.2 µM in the test on OVCAR-8 ovarian; > 1 µM and 45.1 µM in the test on SK-MEL-2 melanoma; > 1 µM and 28.3 µM in the test on SK-MEL-5 melanoma. For the same compound, the TGI was > 1 µM and 30.7 µM in the test on SN12C renal; > 100 µM in the test with SNB-19 CNS; > 1 µM and 43.9 µM in the test with SNB-75 CNS; > 71.2 µM with SR leukemia.
Take `Cc1cc(NC(=O)NC(=O)c2ccccc2NC(=O)C(C)N)ccc1Oc1ncc(Br)cn1` (configuration not stated): the TGI in the test on HCC-2998 colon turned out to be 4.38 µM; with HCT-116 colon, 27.2 µM; with HL-60(TB) leukemia, 0.558 µM; with OVCAR-8 ovarian, 15.3 µM; in the test on SK-MEL-2 melanoma, 6.58 µM; with SK-MEL-5 melanoma it was 9.49 µM. Also, the TGI is 19.5 µM in the test with SN12C renal, 56.3 µM in the test with SNB-19 CNS, 2.47 µM with SNB-75 CNS and 45.3 µM with SR leukemia.
Consider `COc1ccc2c(c1)C(=O)c1ccc(OC)cc1C2=S`, for which the TGI in the test with HCC-2998 colon, in the test with HCT-116 colon, with HL-60(TB) leukemia, in the test on OVCAR-8 ovarian, in the test on SK-MEL-2 melanoma and in the test with SK-MEL-5 melanoma was > 100 µM throughout. In addition, the TGI in the test with SN12C renal is > 100 µM; in the test on SNB-19 CNS it was > 100 µM; in the test with SNB-75 CNS, 87.4 µM; with SR leukemia, > 100 µM.
Consider `CC1=C(C(=O)Nc2ccc3n[nH]c(C)c3c2)C(c2ccc(C(F)(F)F)cc2)CC(=O)N1` (configuration not stated), for which the GI50 was > 25000 nM in the test with HCC-2998 colon; 12.5 µM with HCT-116 colon; > 25000 nM with HL-60(TB) leukemia; > 25000 nM in the test with OVCAR-8 ovarian; > 25000 nM in the test on SK-MEL-2 melanoma; > 17700 nM in the test on SK-MEL-5 melanoma. The GI50 with SN12C renal was > 25000 nM; with SNB-19 CNS it was > 25000 nM; in the test on SNB-75 CNS it was 1240 nM; in the test with SR leukemia it was > 16400 nM. The TGI with HCC-2998 colon, in the test on HCT-116 colon, with HL-60(TB) leukemia, in the test on OVCAR-8 ovarian, with SK-MEL-2 melanoma and in the test with SK-MEL-5 melanoma was > 25 µM each time. Further, the TGI in the test on SN12C renal is > 25 µM; in the test on SNB-19 CNS it was > 25 µM; with SNB-75 CNS it was > 18.8 µM; in the test on SR leukemia it was > 25 µM.
Take `O=[N+]([O-])c1ccc(-n2nnc(C3=NCCN3)c2-c2ccccc2)cc1`: the TGI in the test on HCC-2998 colon, in the test on HCT-116 colon, in the test on HL-60(TB) leukemia, with OVCAR-8 ovarian, with SK-MEL-2 melanoma and with SK-MEL-5 melanoma was > 100 µM in each case. Also, the TGI in the test with SN12C renal, in the test with SNB-19 CNS, in the test on SNB-75 CNS and with SR leukemia was > 100 µM throughout.
Regarding `COc1ccc(C/C(C)=C(/c2ccc(OCCN3CCCCC3)cc2)c2ccc(OC(=O)NCc3ccccc3)cc2)cc1`, the GI50 in the test on HCC-2998 colon is 435 nM; in the test with HCT-116 colon, 0.33 µM; in the test on HL-60(TB) leukemia it was 391 nM; with OVCAR-8 ovarian, 472 nM; in the test with SK-MEL-2 melanoma, 460 nM; in the test with SK-MEL-5 melanoma, 421 nM. Besides, the GI50 in the test with SN12C renal was 428 nM; with SNB-19 CNS, 459 nM; with SNB-75 CNS, 355 nM; with SR leukemia it was 353 nM. Further, the TGI turned out to be 0.797 µM in the test with HCC-2998 colon; 0.698 µM in the test on HCT-116 colon; 0.895 µM in the test with HL-60(TB) leukemia; 0.937 µM with OVCAR-8 ovarian; 0.879 µM with SK-MEL-2 melanoma; 0.774 µM in the test with SK-MEL-5 melanoma. Moreover, the TGI with SN12C renal was 0.8 µM; in the test with SNB-19 CNS, 0.852 µM; in the test with SNB-75 CNS, 0.716 µM; in the test with SR leukemia, 1.34 µM.
On to `O=C1/C(=C/c2ccccc2)CN(C(=O)CCN2CCOCC2)C/C1=C\c1ccccc1`, for which the TGI in the test on HCC-2998 colon is 3.68 µM; in the test with HCT-116 colon it was 2.04 µM; with HL-60(TB) leukemia it was 6.51 µM; in the test on OVCAR-8 ovarian, 10.3 µM; with SK-MEL-2 melanoma, 6.96 µM; in the test on SK-MEL-5 melanoma it was 4.99 µM. Moreover, the TGI with SN12C renal came out at 4.55 µM; with SNB-19 CNS, 14.5 µM; in the test with SNB-75 CNS, 20 µM; with SR leukemia, 4.04 µM.
With `O=S(=O)(/C=C/c1ccc(F)cc1)Cc1ccc(CS(=O)(=O)/C=C/c2ccc(F)cc2)cc1`, the TGI with HCC-2998 colon, with HCT-116 colon, in the test on HL-60(TB) leukemia, with OVCAR-8 ovarian, in the test with SK-MEL-2 melanoma and in the test with SK-MEL-5 melanoma was > 100 µM in each case. The TGI with SN12C renal, in the test with SNB-19 CNS, in the test on SNB-75 CNS and in the test on SR leukemia was > 100 µM in each case.
As for `Cn1ncnc1[C@H]1c2n[nH]c(=O)c3cc(F)cc(c23)N[C@@H]1c1ccc(F)cc1`, the GI50 in the test with HCC-2998 colon was > 100000 nM; in the test on HCT-116 colon, > 80.4 µM; in the test on HL-60(TB) leukemia, 10300 nM; in the test on OVCAR-8 ovarian, > 100000 nM; with SK-MEL-2 melanoma, > 100000 nM; in the test on SK-MEL-5 melanoma, > 100000 nM. For the same compound, the GI50 with SN12C renal is 3260 nM; with SNB-19 CNS it was 22800 nM; with SNB-75 CNS it was 15100 nM; in the test on SR leukemia, 41.7 nM. The TGI with HCC-2998 colon, with HCT-116 colon, with HL-60(TB) leukemia, in the test with OVCAR-8 ovarian, in the test on SK-MEL-2 melanoma and with SK-MEL-5 melanoma was > 100 µM in each case. The TGI in the test with SN12C renal, in the test with SNB-19 CNS, with SNB-75 CNS and in the test on SR leukemia was > 100 µM throughout.
